“Also recorded” adds a separate entry of the source.
Experiments:
[1] = tested on: L3.6 pancreatic cancer cells; assay: Cell viability / cell death (MTT) in L3.6 pancreatic cancer cells; type: cell-based, human; conditions: LY 1 μM, rapamycin 100 nM, U0126 1 μg/ml; 48 hours
Method: L3.6 pancreatic cancer cells, cultured either in the basic DMEM medium or with 10% FBS, were treated with the indicated doses of taxol in the presence or absence of C6-ceramide (10 μg/ml) for 48 hours and cell viability was detected by MTT assay (FIGS. 1A-1B). L3.6 cells, cultured either in basic DMEM medium or with 10% FBS, were treated with the indicated dose of C6-ceramide in the presence or absence of taxol (1.5 μg/ml) for 48 hours and cell viability was detected by MTT assay (FIGS. 1C-1D). Mitomycin C (10 μg/ml) was always present in the media to prevent cell proliferation from occurring. The data represents the mean±SD of at least triplicate experiments. *P<0.05 versus group without C6-ceramide presents (FIGS. 1A-1B). **P<0.05 versus group without taxol presents (FIGS. 1C-1D).
(§1) FIGS. 3A-3H show synergistic anti-tumor effects of C6-ceramide and gemcitabine in vivo and in vitro. SCID/Beige/Taconic nude male mice (22-25 g; 6-8 weeks old) were ear tagged and randomized into 4 different groups (Control, Ceramide, gemcitabine, Ceramide+gemcitabine) combining 5 mice each prior to inoculation subcutaneous (s.c.) with 2×10^6 L3.6 cells in a 0.1 ml volume into the internal surface of the right thigh. Treatment was started 4 days after L3.6 cell injection with thrice weekly (3×/wk) intraperitoneal (i.p.) injections of gemcitabine (two doses: 5.0 and 10.0 mg/ml) with or without C6-ceramide (10 mg/ml) for 2 weeks. Mouse survival (FIGS. 3A, 3B, and 3E) and tumor volume (in cm^3; FIGS. 3C and 3D) were recorded (FIG. 3E). Pancreatic cancer cell lines, including L3.6 cells (FIG. 3F), Panc-1 cells (FIG. 3G) and MIA-PaCa2 cells (MIA, FIG. 3H) were cultured in basic DMEM medium and were treated with gemcitabine (Gem, 1 μg/ml). Mitomycin C was always present in the media to prevent cell proliferation from occurring. The data represent the mean±SD of at least triplicate experiments. *P<0.05 versus group without C6-ceramide presents. The experiments were repeated at least three times and similar results were observed.
(§2) Pancreatic cancer cell lines L3.6 cells were left untreated or treated with gemcitabine (Gem, 1 μg/ml) or taxol (1.5 μg/ml) in the presence or absence of C6-ceramide (10 μg/ml) for 2, 4 and 6 hours, AKT/mTORC1 and ERK activation were detected by Western Blot using indicated antibodies (FIGS. 5A and 5C). p-AKT (S473) and p-ERK at 4 hour time intervals for each treatment quantified (FIGS. 5B and 5D). L3.6 cells were pretreated with various inhibitors including PI3K/AKT inhibitor LY 294002 (LY, 1 μM), mTORC1 inhibitor rapamycin (100 nM), MEK/ERK inhibitor U0126 (1 μg/ml) or gemcitabine (1 μg/ml) for 48 hours, cell death was detected 48 hours later (FIG. 5E). The effects of the various inhibitors described above on AKT/mTORC1 and ERK activation were also detected by Western Blots using commercial available antibodies (FIG. 5F). *P<0.05 versus group without C6-ceramide presents. The experiments were repeated at least three times and similar results were observed.
Cell viability was measured by the 3-[4m5-dimethylthylthiazol-2-y]-2.5 diphenyltetrazolium bromide (MTT) method, as described in Cao et al. (2009) Sci. Signal, 2:RA17. Briefly, the cells were collected and seeded in 96-well plate at a density of 2×10^5 cells/cm^2. Different seeding densities were optimized at the beginning of the experiments. After overnight incubation cells were exposed to fresh medium containing indicated reagents at 37° C. After incubation for different time periods, 20 ul of MTT tetrazolium (Sigma, St. Louis, Mo.) salt dissolved in Hank's balanced solution at a concentration of 5 mg/ml was added to each well and incubated in a CO2 incubator for an additional 4 hours. The medium was subsequently aspirated from each well and 150 ul of DMSO (Sigma, St. Louis, Mo.) was added to dissolve formazan crystals and the absorbance of each well was obtained using a Dynatech MR5000 plate reader at a test wavelength of 490 nm with a reference wavelength of 630 nm. […]

[2] = tested on: cancer cells; assay: Taxol induced cancer cell death with pathway inhibitors/activators (FIGS. 4A-4D); type: cell-based; conditions: added to Taxol
Text: The molecular mechanism involved in C6-ceramide induced chemosensitization effects was examined by focusing on taxol.
To further confirm the requirement of AMPK activation in this synergistic effect, siRNA directed against AMPK can be used.

[3] = tested on: Panc-1 cells; assay: Cell death in Panc-1 pancreatic cancer cells; type: cell-based; conditions: Panc-1; gemcitabine 1.5 μg/ml
Method: as §1, with “Pancreatic cancer cell lines, including L3.6 cells (FIG. 3F), Panc-1 cells (FIG. 3G) and MIA-PaCa2 cells (MIA, FIG. 3H) were cultured in basic DMEM medium and were treated with gemcitabine (Gem, 1 μg/ml).” left out
(§3) Cell viability was measured by the 3-[4m5-dimethylthylthiazol-2-y]-2.5 diphenyltetrazolium bromide (MTT) method, as described in Cao et al. (2009) Sci. Signal, 2:RA17. Briefly, the cells were collected and seeded in 96-well plate at a density of 2×10^5 cells/cm^2. Different seeding densities were optimized at the beginning of the experiments. […] The medium was subsequently aspirated from each well and 150 ul of DMSO (Sigma, St. Louis, Mo.) was added to dissolve formazan crystals and the absorbance of each well was obtained using a Dynatech MR5000 plate reader at a test wavelength of 490 nm with a reference wavelength of 630 nm.
(§4) The possible combination effect of C6-ceramide on gemcitabine-induced cytotoxicity (in vitro) and regression (in vivo) of the L3.6 pancreatic cancer cell was also tested according to the methods described in Examples 2 and 3. […] A synergistic anti-tumor effect of gemcitabine and C6-ceramide in multiple pancreatic cancer cells in vitro was also determined.

[4] = tested on: MIA-PaCa2 cells; assay: Cell death in MIA-PaCa2 pancreatic cancer cells; type: cell-based; conditions: MIA cells; gemcitabine 1.5 μg/ml
Method: as §1, with “Pancreatic cancer cell lines, including L3.6 cells (FIG. 3F), Panc-1 cells (FIG. 3G) and MIA-PaCa2 cells (MIA, FIG. 3H) were cultured in basic DMEM medium and were treated with gemcitabine (Gem, 1 μg/ml).” left out
as §3, §4

[5] = tested on: L3.6 pancreatic cells; type: in vivo
Method: Treatment was started 4 days after L3.6 cell injection with thrice weekly (3×/wk) intraperitoneal (i.p.) injections of paclitaxel 3.0 mg/ml with or without C6-ceramide (10 mg/ml) for 2 weeks. Mouse survival (FIGS. 2A and 2C), tumor volume (in cm^3; FIG. 2B), mouse body weight (in grams) were recorded (FIG. 2E). The average rate of tumor development was calculated by total tumor volume dividing by total number of days monitored (FIG. 2C).
as §1, with “SCID/Beige/Taconic” for “FIGS. 3A-3H show synergistic anti-tumor effects of C6-ceramide and gemcitabine in vivo and in vitro. SCID/Beige/Taconic”, “occurring.” for “occurring. The data represent the mean±SD of at least triplicate experiments. *P<0.05 versus group without C6-ceramide presents. The experiments were repeated at least three times and similar results were observed.”
SCID/Beige/Taconic male mice were inoculated with 2×10^6 L3.6 pancreatic cells and treated […] 4 days post tumor implant with thrice weekly (3×/wk) intraperitoneal (I.P.) injections of paclitaxel (taxol) 3.0 mg/ml or gemcitabine (Gem) 10 mg/ml after treatment and were autopsied when near death (as per IRB committee). Mouse survival, tumor volume (in cm^3), and body weight (in grams) were recorded. Average rate of tumor development was calculated by dividing total tumor volume by total number of days monitored.
The possible combination effect of C6-ceramide on gemcitabine-induced cytotoxicity (in vitro) and regression (in vivo) of the L3.6 pancreatic cancer cell was also tested according to the methods described in Examples 2 and 3.

[6] = tested on: AKT/mTORC1; assay: Western Blot of AKT/mTORC1 activation in L3.6 cells; type: cell-based
Method: as §2, with “5E).” for “5E). The effects of the various inhibitors described above on AKT/mTORC1 and ERK activation were also detected by Western Blots using commercial available antibodies (FIG. 5F). *P<0.05 versus group without C6-ceramide presents. The experiments were repeated at least three times and similar results were observed.”
(§5) As described in Cao et al. (2009) Sci. Signal, 2:RA17, aliquots of 30-40 μg of protein from each sample (treated as indicated in the legends) were separated by 10% SDS-polyacrylamide gel electrophoresis (SDS-PAGE) and transferred onto a polyvinylidene difluoride (PVDF) membrane (Millipore, Bedford, Mass.). After blocking with 10% instant nonfat dry milk for 1 hour, membranes were incubated with specific antibodies overnight at 4° C. followed by incubation with secondary antibodies (HRP-conjugated anti-rabbit or anti-mouse IgG at the appropriate dilutions) for 60 minutes to 1 hour at room temperature. Antibody binding was detected with the enhanced chemiluminescence (ECL) detection system (Amersham Biosciences, Piscataway, N.J.).

[7] = tested on: ERK; assay: Western Blot of ERK activation in L3.6 cells; type: cell-based
Method: as §2, with “5E).” for “5E). The effects of the various inhibitors described above on AKT/mTORC1 and ERK activation were also detected by Western Blots using commercial available antibodies (FIG. 5F). *P<0.05 versus group without C6-ceramide presents. The experiments were repeated at least three times and similar results were observed.”
as §5

[8] = tested on: L3.6 pancreatic cancer cells; assay: Cell viability / cell death (MTT) in L3.6 pancreatic cancer cells; type: cell-based, human; conditions: gemcitabine 1.5 μg/ml

In the case of `N#CC(=C(N)Sc1ccccc1N)C(C#N)=C(N)Sc1ccccc1N` [U0126, 1,4-diamino-2,3-dicyano-1,4-bis [2-aminophenylthio]butadiene], the “effect on gemcitabine induced L3.6 cell death” value [1] is reported as “largely enhanced; also recorded: sensitized” and the “effect on taxol induced L3.6 cell death” value [1] is reported as “largely enhanced; also recorded: sensitized”.
For `c1cc(-c2cnn3cc(-c4ccc(OCCN5CCCCC5)cc4)cnc23)ccn1` [Compound C], the “effect on Taxol induced cancer cell death” value [2] was “inhibits”.
In the case of `NC(=O)c1ncn([C@@H]2O[C@H](CO)[C@@H](O)[C@H]2O)c1N` [AICAR], the “effect on Taxol induced cancer cell death” value [2] is reported as “enhance”.
For `Nc1ccn([C@@H]2O[C@H](CO)[C@@H](O)C2(F)F)c(=O)n1` [gemcitabine], the cancer cell death [3] was “moderate effect”, the cancer cell death [4] was “moderate effect” and the anti-tumor effect ([5]; gemcitabine 10 mg/kg) was “moderate anti-tumor effect”. For the same compound, the “survival and tumor growth” value ([5]; low dose gemcitabine 5 mg/kg) was “limited effect”, the “AKT/mTORC1 activation / signaling” value ([6]; L3.6 cells, Western Blot) was “no effect” and the PI3K/AKT/mTOR activation ([6]; Taxol alone) was “no effect”. The “effect on C6-ceramide induced AKT de-phosphorylation or inhibition” value ([6]; added to C6-ceramide) was “dramatically enhanced”, the “ERK activation / signaling” value ([7]; L3.6 cells, Western Blot) was “no effect” and the “effect on C6-ceramide inhibition of ERK activation” value ([7]; added to C6-ceramide) was “enhanced”. For the same compound, the cancer cell death [8] was “moderate effect”.
For `CCCCCCCCCCCCCCCCCCOC[C@H](COP(=O)(O)O[C@H]1[C@H](O)[C@@H](O)[C@H](O)C[C@H]1OC)OC` [AKT inhibitor II], the “Taxol induced cell death in vivo” value ([5]; inhibitor plus taxol, pancreatic cancer model SCID mice, expected) was “enhance” and the “effect on Taxol induced cancer cell death” value [2] was “enhance”.

From patent publication US9974760B2, “Compositions and methods for treating cancer” (Chemo-Enhanced LLC, priority 2011, dated 2018)
